Results reported in patent US20220071971A1, “MACROCYCLIC COMPOUNDS AND THEIR USE IN THE TREATMENT OF DISEASE” (NOVARTIS AG, priority 2018, published 2022).

Target: T1, delF508-CFTR (Homo sapiens, UniProt P13569, DEL508-508)
T1 construct: expressed in transfected cells
Experiment: Measurement of delF508-CFTR-HRP surface expression in CFBE41o- cells
Format: cell-based
Details: for EC50: HRP-tagged delF508-CFTR surface expression, CFBE41o- cells, 24 h with compound, 10-point curve, highest concentration 10 μM; for Emax: CFBE41o-, read-out: DelF508-CFTR-HRP Amax %
Text: Measurement of deIF508-CFTR-HRP Surface Expression in CFBE41o-Cells
This assay quantifies the cell surface expressions of the mutant CFTR channel using an extracellular HRP tag.
A cellular assay was developed to measure surface expression of horseradish peroxidase (HRP) tagged delF508-CFTR in the human bronchial epithelial immortalized CFBE41o-cell line (Phuan, P. W., et al, (2014) Molecular Pharmacology 86:42-51). Specifically, the HRP sequence was inserted into the fourth extracellular loop of delF508-CFTR and stably expressed in CFBE41o-cells. Cells were seeded in 384 well plate at a density of 5000 cells/well and incubated at 37° C. for 12 to 24 hours in medium (Gibco MEM #11095, 10% FBS, 10 mM HEPES, […], 200 μg/mL G418, 3 μg/mL Puromycin). The delF508-CFTR-HRP expression was induced with 500 ng/mL doxycycline (Sigma D-9891, dissolved in H2O and sterile filtered) in medium and the cells were incubated at 37° C. for 48 h. Old medium was removed and fresh medium was added containing 500 ng/mL doxycycline and unknown test compound at required test concentration in DMSO, not exceeding 0.5% final DMSO concentration. The highest concentration tested was 10 μM with a 10-point concentration response curve using a 3-fold dilution. After addition of compounds, the cells were incubated for 24 h at 37° C. On the final day, cells were washed four times in PBS containing 1 mM MgCl2 and 0.1 mM CaCl2. HRP-Substrate (SuperSignal ELISA Pico, Fisher #37069) 20 μl/well was added and the luminescence signal was determined (Viewlux, Perkin Elmer). Light was emitted upon addition of exogenous HRP-Substrate only when delF508-CFTR-HRP reached the cell surface and the HRP tag was accessible to the HRP-Substrate (note: HRP-Substrate cannot cross the lipid bilayer to reach delF508-CFTR-HRP misfolded within the cell).
The median activity for the lowest concentration of the compounds on each assay plate was calculated and this value was used to normalize the signal for each well on the respective plate. Three replicates at each concentrations for every compound were run to determine one EC50. The median value was determined and used to calculate compound activities as described below. Effective half maximal values (EC50) were calculated for each compound by performing logistic regression on measured dose-response data points using the equation: […]
where “Y” is the observed activity, “Bottom” is the lowest observed value, “Top” is the highest observed value, and the “Hill coefficient” gives the largest absolute value of the slope. The curve fitting is carried out by a curve fitting program implemented at GNF using Matlab (Mathworks).
The dose response curves also were used to calculate Fold Change (FC) using the equation: […]
Compound efficacy relative to the reference compound 3-(6-(1-(2,2-difluorobenzo[d][1,3]dioxol-5-yl)cyclopropane-1-carboxamido)-3-methylpyridin-2-yl)benzoic acid was determined using the following formula: […]

[1] = efficacy relative to reference compound 3-(6-(1-(2,2-difluorobenzo[d][1,3]dioxol-5-yl)cyclopropane-1-carboxamido)-3-methylpyridin-2-yl)benzoic acid

T1 sequence (P13569 with tags, fused parts or gaps DEL508-508): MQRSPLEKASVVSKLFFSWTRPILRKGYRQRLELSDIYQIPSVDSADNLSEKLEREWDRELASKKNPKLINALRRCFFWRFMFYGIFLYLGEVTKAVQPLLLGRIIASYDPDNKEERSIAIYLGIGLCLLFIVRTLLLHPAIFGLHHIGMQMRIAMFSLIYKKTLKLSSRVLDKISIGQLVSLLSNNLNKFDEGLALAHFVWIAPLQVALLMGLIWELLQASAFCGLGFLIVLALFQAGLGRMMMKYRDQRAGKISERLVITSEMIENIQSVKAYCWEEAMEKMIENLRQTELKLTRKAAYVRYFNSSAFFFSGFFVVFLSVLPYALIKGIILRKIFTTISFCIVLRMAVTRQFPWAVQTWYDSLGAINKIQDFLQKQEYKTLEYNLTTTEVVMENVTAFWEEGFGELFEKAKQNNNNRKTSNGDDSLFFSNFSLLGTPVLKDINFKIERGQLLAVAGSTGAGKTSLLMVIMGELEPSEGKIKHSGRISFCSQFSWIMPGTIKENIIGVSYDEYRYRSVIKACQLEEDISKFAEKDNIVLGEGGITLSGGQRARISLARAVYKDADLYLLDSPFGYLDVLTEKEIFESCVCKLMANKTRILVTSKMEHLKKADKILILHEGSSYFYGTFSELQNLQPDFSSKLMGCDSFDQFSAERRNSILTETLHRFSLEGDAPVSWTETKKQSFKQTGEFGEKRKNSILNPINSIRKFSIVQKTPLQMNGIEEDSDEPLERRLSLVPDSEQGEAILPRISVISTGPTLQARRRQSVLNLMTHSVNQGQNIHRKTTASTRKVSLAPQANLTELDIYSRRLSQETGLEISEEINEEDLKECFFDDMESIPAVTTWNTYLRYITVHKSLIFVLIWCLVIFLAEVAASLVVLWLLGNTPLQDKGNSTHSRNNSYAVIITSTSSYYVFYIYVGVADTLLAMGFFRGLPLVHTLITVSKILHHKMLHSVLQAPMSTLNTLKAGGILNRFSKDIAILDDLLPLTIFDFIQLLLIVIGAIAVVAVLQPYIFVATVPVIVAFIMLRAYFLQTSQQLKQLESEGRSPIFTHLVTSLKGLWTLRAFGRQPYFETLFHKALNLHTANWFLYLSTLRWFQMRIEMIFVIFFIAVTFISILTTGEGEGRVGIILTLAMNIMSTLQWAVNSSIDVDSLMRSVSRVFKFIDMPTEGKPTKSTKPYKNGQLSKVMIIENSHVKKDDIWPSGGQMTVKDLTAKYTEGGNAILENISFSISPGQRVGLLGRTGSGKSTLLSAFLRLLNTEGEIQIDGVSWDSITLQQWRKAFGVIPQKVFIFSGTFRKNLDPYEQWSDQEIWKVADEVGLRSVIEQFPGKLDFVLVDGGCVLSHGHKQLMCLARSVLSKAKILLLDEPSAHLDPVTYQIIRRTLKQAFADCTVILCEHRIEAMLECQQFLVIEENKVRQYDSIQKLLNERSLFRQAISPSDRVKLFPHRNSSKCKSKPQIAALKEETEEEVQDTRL

SMILES	EC50 [nM]	Emax [1] [%]	DelF508-CFTR-HRP Amax % [1] [%]
O=C(O)CCCN1CCCCOc2ccc(F)cc2-c2nc(ccc2C(F)(F)F)NS(=O)(=O)c2cccc1n2 [Compound 63, 4-(1^5-fluoro-4,4-dioxido-2^3-(trifluoromethyl)-11-oxa-4-thia-3,6-diaza-2,5(2,6)-dipyridina-1(1,2)-benzenacycloundecaphane-6-yl)butanoic acid]	1800	–	–
O=C(O)CCOCCN1CCCCCc2ccccc2-c2nc(ccc2C(F)(F)F)NS(=O)(=O)c2cccc1n2 [Compound 64, 3-(2-(4,4-dioxido-2^3-(trifluoromethyl)-4-thia-3,6-diaza-2,5(2,6)-dipyridina-1(1,2)-benzenacycloundecaphane-6-yl)ethoxy)propanoic acid]	913	862	–
O=C(O)CCCN1CCCCCCCc2ccccc2-c2nc(ccc2C(F)(F)F)NS(=O)(=O)c2cccc1n2 [Compound 65, 4-(4,4-dioxido-2^3-(trifluoromethyl)-4-thia-3,6-diaza-2,5(2,6)-dipyridina-1(1,2)-benzenacyclotridecaphane-6-yl)butanoic acid]	280	–	–
O=C(O)CCCN1CCCCCCCCCc2ccccc2-c2nc(ccc2C(F)(F)F)NS(=O)(=O)c2cccc1n2 [Compound 66, 4-(4,4-dioxido-2^3-(trifluoromethyl)-4-thia-3,6-diaza-2,5(2,6)-dipyridina-1(1,2)-benzenacyclopentadecaphane-6-yl)butanoic acid]	224	–	–
O=C(O)CCCN1CCCCCc2ccccc2-c2nc(ccc2C(F)(F)F)NS(=O)(=O)c2cccc1n2 [Compound 67, 4-(4,4-dioxido-2^3-(trifluoromethyl)-4-thia-3,6-diaza-2,5(2,6)-dipyridina-1(1,2)-benzenacycloundecaphane-6-yl)butanoic acid]	608	–	–
O=C(O)CCCN1CCCCCCc2ccc(F)cc2-c2nc(ccc2C(F)(F)F)NS(=O)(=O)c2cccc1n2 [Compound 68, 4-(1^5-fluoro-4,4-dioxido-2^3-(trifluoromethyl)-4-thia-3,6-diaza-2,5(2,6)-dipyridina-1(1,2)-benzenacyclododecaphane-6-yl)butanoic acid]	418	–	–
O=C(O)CCN1CCCCCCCCc2ccccc2-c2nc(ccc2C(F)(F)F)NS(=O)(=O)c2cccc1n2 [Compound 69, 3-(4,4-dioxido-2^3-(trifluoromethyl)-4-thia-3,6-diaza-2,5(2,6)-dipyridina-1(1,2)-benzenacyclotetradecaphane-6-yl)propanoic acid]	351	–	–
O=C(O)CCCCCN1CCCCCc2ccccc2-c2nc(ccc2C(F)(F)F)NS(=O)(=O)c2cccc1n2 [Compound 70, 6-(4,4-dioxido-2^3-(trifluoromethyl)-4-thia-3,6-diaza-2,5(2,6)-dipyridina-1(1,2)-benzenacycloundecaphane-6-yl)hexanoic acid]	373	843	–
O=C(O)CCCN1CCCCCCCCc2ccccc2-c2nc(ccc2C(F)(F)F)NS(=O)(=O)c2cccc1n2 [Compound 71, 4-(4,4-dioxido-2^3-(trifluoromethyl)-4-thia-3,6-diaza-2,5(2,6)-dipyridina-1(1,2)-benzenacyclotetradecaphane-6-yl)butanoic acid]	291	–	–
Cc1ccc2nc1-c1ccccc1CCCCCN(CCCC(=O)O)c1cccc(n1)S(=O)(=O)N2 [Compound 72, 4-(2^3-methyl-4,4-dioxido-4-thia-3,6-diaza-2,5(2,6)-dipyridina-1(1,2)-benzenacycloundecaphane-6-yl)butanoic acid]	2430	396	–
O=CCCCN1CCCCCc2ccccc2-c2nc(ccc2C(F)(F)F)NS(=O)(=O)c2cccc1n2 [Compound 73, 4-(4,4-dioxido-2^3-(trifluoromethyl)-4-thia-3,6-diaza-2,5(2,6)-dipyridina-1(1,2)-benzenacycloundecaphane-6-yl)butanal]	439	764	–
O=C(O)COCCN1CCCCCc2ccccc2-c2nc(ccc2C(F)(F)F)NS(=O)(=O)c2cccc1n2 [Compound 74, 2-(2-(4,4-dioxido-2^3-(trifluoromethyl)-4-thia-3,6-diaza-2,5(2,6)-dipyridina-1(1,2)-benzenacycloundecaphane-6-yl)ethoxy)acetic acid]	1990	745	–
O=C(O)CCN1CCCCCCCCCc2ccccc2-c2nc(ccc2C(F)(F)F)NS(=O)(=O)c2cccc1n2 [Compound 75, 3-(4,4-dioxido-2^3-(trifluoromethyl)-4-thia-3,6-diaza-2,5(2,6)-dipyridina-1(1,2)-benzenacyclopentadecaphane-6-yl)propanoic acid]	417	–	–
O=C(O)CCCN1CCCCCCc2ccccc2-c2nc(ccc2C(F)(F)F)NS(=O)(=O)c2cccc1n2 [Compound 76, 4-(4,4-dioxido-2^3-(trifluoromethyl)-4-thia-3,6-diaza-2,5(2,6)-dipyridina-1(1,2)-benzenacyclododecaphane-6-yl)butanoic acid]	421	–	–
O=C(O)CCCCN1CCCCCc2ccccc2-c2nc(ccc2C(F)(F)F)NS(=O)(=O)c2cccc1n2 [Compound 77, 5-(4,4-dioxido-2^3-(trifluoromethyl)-4-thia-3,6-diaza-2,5(2,6)-dipyridina-1(1,2)-benzenacycloundecaphane-6-yl)pentanoic acid]	492	–	–
O=C(O)CCCCN1CCCCCCc2ccccc2-c2nc(ccc2C(F)(F)F)NS(=O)(=O)c2cccc1n2 [Compound 78, 5-(4,4-dioxido-2^3-(trifluoromethyl)-4-thia-3,6-diaza-2,5(2,6)-dipyridina-1(1,2)-benzenacyclododecaphane-6-yl)pentanoic acid]	293	–	–

More lines, now with the values ahead:

EC50 [nM]	Emax [1] [%]	DelF508-CFTR-HRP Amax % [1] [%]	SMILES
1600	–	–	O=C(O)CCCN1CCCCCc2ccccc2-c2nc(ccc2Cl)NS(=O)(=O)c2cccc1n2 [Compound 79, 4-(2^3-chloro-4,4-dioxido-4-thia-3,6-diaza-2,5(2,6)-dipyridina-1(1,2)-benzenacycloundecaphane-6-yl)butanoic acid]
1400	–	–	O=C(O)CCCCN1CCCCc2ccccc2-c2nc(ccc2C(F)(F)F)NS(=O)(=O)c2cccc1n2 [Compound 80, 5-(4,4-dioxido-2^3-(trifluoromethyl)-4-thia-3,6-diaza-2,5(2,6)-dipyridina-1(1,2)-benzenacyclodecaphane-6-yl)pentanoic acid]
2330	527	–	O=C(O)CCN1CCCCOc2ccc(F)cc2-c2nc(ccc2C(F)(F)F)NS(=O)(=O)c2cccc1n2 [Compound 81, 3-(1^5-fluoro-4,4-dioxido-2^3-(trifluoromethyl)-11-oxa-4-thia-3,6-diaza-2,5(2,6)-dipyridina-1(1,2)-benzenacycloundecaphane-6-yl)propanoic acid]
844	652	–	O=C(O)CCCCCN1CCCCCc2ccccc2-c2nc(ccc2Cl)NS(=O)(=O)c2cccc1n2 [Compound 82, 6-(2^3-chloro-4,4-dioxido-4-thia-3,6-diaza-2,5(2,6)-dipyridina-1(1,2)-benzenacycloundecaphane-6-yl)hexanoic acid]
2430	–	163.8	COc1ccc2nc1-c1ccccc1CCCCCN(CCCC(=O)O)c1cccc(n1)S(=O)(=O)N2 [Compound 83, 4-(2^3-methoxy-4,4-dioxido-4-thia-3,6-diaza-2,5(2,6)-dipyridina-1(1,2)-benzenacycloundecaphane-6-yl)butanoic acid]
1040	–	–	O=C(O)CCN1CCCCCCc2ccccc2-c2nc(ccc2C(F)(F)F)NS(=O)(=O)c2cccc1n2 [Compound 84, 3-(4,4-dioxido-2^3-(trifluoromethyl)-4-thia-3,6-diaza-2,5(2,6)-dipyridina-1(1,2)-benzenacyclododecaphane-6-yl)propanoic acid]
714	–	–	O=C(O)CCN1CCCCCCc2ccc(F)cc2-c2nc(ccc2C(F)(F)F)NS(=O)(=O)c2cccc1n2 [Compound 85, 3-(1^5-fluoro-4,4-dioxido-2^3-(trifluoromethyl)-4-thia-3,6-diaza-2,5(2,6)-dipyridina-1(1,2)-benzenacyclododecaphane-6-yl)propanoic acid]
